From patent publication US7985424B2, “Dendritic polymers with enhanced amplification and interior functionality” (Dendritic Nanotechnologies Inc., priority 2004, dated 2011)

Experiments:
[1] = Proton relaxivity analysis (variable field T1-T2 analyzer); format: physicochemical; details: Table IV; field strength varied from 1-64 MHz
Method: Relaxivity analysis was performed using a variable field T1-T2 analyzer. The field strength was varied from 1-64 MHz.
The Gd(III) content of the solutions was determined on a sequential, radially viewed Varian™ Liberty Series II ICPOES inductively coupled plasma optical emission spectrophotometer (Anderson Analytical, TX). Relaxivity analysis was performed using a variable field T1-T2 analyzer (University of Pittsburgh). The field strength was varied from 1-64 MHz. […] Relaxivity values for DTPA-Gd(III)-encapsulated dendrimers were similar to free DTPA-Gd(III).

HEK 293 cells = test: Membrane permeation of FITC-conjugated PEHAM dendrimer (fluorescence microscopy); format: cell-based, human; details: monitored at 2, 5 and 24 hours, FIG. 13
Method: Fluorescence microscopy and phase contrast microscopy studies were performed using a Nikon Diaphot™ TMD microscope equipped with Nikon™ TMD-EF for fluorescence, along with a Nikon™ CoolPix 990 digital camera to capture the results.
HEK 293 cells were plated at 40% confluency in a 96-well plate (Becton Dickinson) in MEM (Fisher), containing 10% FBS (ISC BioExpress). […] Control wells included G=1 PEHAM dendrimer and FITC dye alone, at equivalent concentrations. The cells were incubated with the conjugate for 24 hours, with monitoring via fluorescence microscopy at 2, 5, and 24 hours. Prior to examination under the microscope, the cells to be analyzed were rinsed 2 times with PBS.

Compound: O=C([O-])CN(CCN(CC(=O)[O-])CC(=O)O)CCN(CC(=O)[O-])CC(=O)O.[Gd+3] [DTPA-Gd, diethylenetriaminepentaacetic acid, gadolinium(III)]
- Relaxivity (r1) [1]: 4.2 mM⁻¹ s⁻¹

Compound: fluorescein isothiocyanate [FITC]
- membrane permeation / intracellular fluorescence (HEK 293 cells): no intracellular fluorescence
